Data published in patent US9737545B2 (MERCK SHARP & DOHME CORP., priority 2013, dated 2017).

These molecules were tested against T1, wildtype HIV-1 protease (Human immunodeficiency virus type 1 group M subtype B, UniProt P04585) (assay: Assay for Inhibition of Microbial Expressed HIV Protease (Pepcleav)). Conditions: not given.
T1 construct: preincubated with the HIV-1 protease (wild type) enzyme in assay buffer; made in house; host or cells: Escherichia coli
Format: biochemical
Procedure, shortened: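 E. coli-expressed wildtype protease (20 pM final) preincubated with inhibitor 30 min at room temperature in 50 mM sodium acetate pH 5.5, 100 mM NaCl, 0.1% BSA. Reaction with 400 μM peptide substrate ran 1 h at 30° C. Inhibition derived from LC-MS/MS (MRM) product peak area.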
For `Cc1cc2nc([C@@H]3CO[C@H](CCc4c(F)cncc4NC(=O)C[C@H](c4ccccc4)c4ccc(F)cc4)CN3)[nH]c2cc1C` [Example 69, (3R)—N-(4-{2-[(2R,5R)-5-(5,6-dimethyl-1H-benzimidazol-2-yl)morpholin-2-yl]ethyl}-5-fluoropyridin-3-yl)-3-(4-fluorophenyl)-3-phenylpropanamide], the IC50 was 0.01 nM. `COC(=O)N[C@H](C(=O)Nc1cncc(F)c1CC[C@@H]1CN[C@H](c2nc3cc(C)c(C)cc3[nH]2)CO1)C(c1ccc(F)cc1)c1ccc(F)cc1` [Example 95, N-(4-{2-[(2R,5R)-5-(5,6-dimethyl-1H-benzimidazol-2-yl)morpholin-2-yl]ethyl}-5-fluoropyridin-3-yl)-4-fluoro-β-(4-fluorophenyl)-Nalpha-(methoxycarbonyl)-L-phenylalaninamide] showed an IC50 of 0.03 nM. Molecule `O=C(CC(c1ccc(F)cc1)c1ccc(F)cc1)Nc1cccc(F)c1CC[C@@H]1CN[C@H](c2nc3ccccc3[nH]2)CO1` [Example 97, N-(2-{2-[(2R,5R)-5-(1H-benzimidazol-2-yl)morpholin-2-yl]ethyl}-3-fluorophenyl)-3,3-bis(4-fluorophenyl) propanamide] has an IC50 of 0.04 nM. `O=C(C[C@@H](c1ccc(F)cc1)c1ccc(F)cc1F)Nc1cccc(F)c1CC[C@@H]1CN[C@H](c2nc3ccccc3[nH]2)CO1` [Example 98, (3S)-N-(2-{2-[(2R,5R)-5-(1H-benzimidazol-2-yl)morpholin-2-yl]ethyl}-3-fluorophenyl)-3-(2,4-difluorophenyl)-3-(4-fluorophenyl) propanamide] was tested, and the IC50 was 0.05 nM. In the case of `O=C(CCc1ccccc1Cl)Nc1cccc(F)c1CC[C@@H]1CN[C@H](c2nc3ccccc3[nH]2)CO1` [Example 99, N-(2-{2-[(2R,5R)-5-(1H-benzimidazol-2-yl)morpholin-2-yl]ethyl}-3-fluorophenyl)-3-(2-chlorophenyl) propanamide], the IC50 is reported as 11 nM. Molecule `O=C(CC(c1ccccc1)c1ccccc1)Nc1cccc(F)c1CC[C@@H]1CN[C@H](c2nc3ccccc3[nH]2)CO1` [Example 100, N-(2-{2-[(2R,5R)-5-(1H-benzimidazol-2-yl)morpholin-2-yl]ethyl}-3-fluorophenyl)-3,3-diphenylpropanamide] has an IC50 of 0.65 nM. `N[C@H](C(=O)Nc1cncc(F)c1CC[C@@H]1CN[C@H](c2nc3cc(C(=O)NCC(F)(F)F)ccc3[nH]2)CO1)C(c1ccccc1)c1ccccc1` [Example 101, N-(5-fluoro-4-{2-[(2R,5R)-5-{5-[(2,2,2-trifluoroethyl)carbamoyl]-1H-benzimidazol-2-yl}morpholin-2-yl]ethyl}pyridin-3-yl)-β-phenyl-L-phenylalaninamide] showed an IC50 of 26 nM. `N[C@@H](Cc1ccccc1Cl)C(=O)Nc1cccc(F)c1CC[C@@H]1CN[C@H](c2nc3ccccc3[nH]2)CO1` [Example 102, N-(2-{2-[(2R,5R)-5-(1H-benzimidazol-2-yl)morpholin-2-yl]ethyl}-3-fluorophenyl)-2-chloro-L-phenylalaninamide] gave an IC50 of 17 nM. For `O=C(COc1ccccc1Cl)Nc1cccc(F)c1CC[C@@H]1CN[C@H](c2nc3ccccc3[nH]2)CO1` [Example 103, N-(2-{2-[(2R,5R)-5-(1H-benzimidazol-2-yl)morpholin-2-yl]ethyl}-3-fluorophenyl)-2-(2-chlorophenoxy) acetamide], the IC50 was 31 nM. Molecule `Cc1cc2nc([C@@H]3CO[C@H](COc4c(F)cccc4NC(=O)C[C@@H](c4ccc(F)cc4)c4cc(F)cc(F)c4)CN3)[nH]c2cc1C` [Example 104, (3S)-3-(3,5-difluorophenyl)-N-(2-{[(2S,5R)-5-(5,6-dimethyl-1H-benzimidazol-2-yl)morpholin-2-yl]methoxy}-3-fluorophenyl)-3-(4-fluorophenyl) propanamide] has an IC50 of 1.1 nM.

The molecules below were run on HIV-1 (H9IIIB strain) (assay: Antiviral Assays in Cell Culture (Spread), acute infection assay). Conditions: Human immunodeficiency virus 1, T-lymphoid, read-out: Viking 50% (nM).
Format: cell-based
Description: Antiviral Assays in Cell Culture (“Spread”)
Acute Infection Assay (“Spread”) data were generated using HIV-1 (H9IIIB strain) infection of MT-4 human T-lymphoid cells in 10% FBS, and according to the methods disclosed by J. P. Vacca et al, “L-735,524: An orally bioavailable human immunodeficiency virus type 1 protease inhibitor,” Proc. Natl. Acad. Sci. USA, Vol. 91, pp. 4096-4100 (April 1994).
For `Cc1cc2nc([C@@H]3CO[C@H](CCc4c(F)cncc4NC(=O)C[C@@H](c4ccc(F)cc4)c4ccncc4F)CN3)[nH]c2cc1C` [Example 63, (3S)—N-(4-{2-[(2R,5R)-5-(5,6-dimethyl-1H-benzimidazol-2-yl)morpholin-2-yl]ethyl}-5-fluoropyridin-3-yl)-3-(4-fluorophenyl)-3-(3-fluoropyridin-4-yl)propanamide], the EC50 was 63 nM. Work on `Cc1cc2nc([C@@H]3CO[C@H](CCc4c(F)cncc4NC(=O)C[C@@H](c4ccc(F)cc4)c4cc(F)cc(F)c4)CN3)[nH]c2cc1C` [Example 64, (3S)-3-(3,5-difluorophenyl)-N-(4-{2-[(2R,5R)-5-(5,6-dimethyl-1H-benzimidazol-2-yl)morpholin-2-yl]ethyl}-5-fluoropyridin-3-yl)-3-(4-fluorophenyl)propanamide] yielded an EC50 of 16 nM. `O=C(C[C@@H](c1ccc(F)cc1)c1cc(F)cc(F)c1)Nc1cncc(F)c1CC[C@@H]1CN[C@H](c2nc3ccc(Cl)cc3[nH]2)CO1` [Example 65, (3S)—N-(4-{2-[(2R,5R)-5-(6-chloro-1H-benzimidazol-2-yl)morpholin-2-yl]ethyl}-5-fluoropyridin-3-yl)-3-(3,5-difluorophenyl)-3-(4-fluorophenyl)propanamide] was tested, and the EC50 was 13 nM. `Cc1ccc2nc([C@@H]3CO[C@H](CCc4c(F)cncc4NC(=O)C[C@@H](c4ccc(F)cc4)c4cc(F)cc(F)c4)CN3)[nH]c2c1` [Example 66, (3S)-3-(3,5-difluorophenyl)-N-(5-fluoro-4-{2-[(2R,5R)-5-(6-methyl-1H-benzimidazol-2-yl)morpholin-2-yl]ethyl}pyridin-3-yl)-3-(4-fluorophenyl)propanamide] was tested, and the EC50 was 22 nM. Work on `Cc1cc2nc([C@@H]3CO[C@H](CCc4c(F)cncc4NC(=O)C[C@H](c4cccc(F)c4)c4ccc(Cl)c(F)c4)CN3)[nH]c2cc1C` [Example 67, (3R)-3-(4-chloro-3-fluorophenyl)-N-(4-{2-[(2R,5R)-5-(5,6-dimethyl-1H-benzimidazol-2-yl)morpholin-2-yl]ethyl}-5-fluoropyridin-3-yl)-3-(3-fluorophenyl)propanamide] yielded an EC50 of 23 nM. `Cc1cc2nc([C@@H]3CO[C@H](CCc4c(F)cncc4NC(=O)C[C@H](c4cncc(F)c4)c4ccc(Cl)c(F)c4)CN3)[nH]c2cc1C` [Example 68, (3S)-3-(4-chloro-3-fluorophenyl)-N-(4-{2-[(2R,5R)-5-(5,6-dimethyl-1H-benzimidazol-2-yl)morpholin-2-yl]ethyl}-5-fluoropyridin-3-yl)-3-(5-fluoropyridin-3-yl)propanamide] was tested, and the EC50 was 52 nM. `Cc1cc2nc([C@@H]3CO[C@H](CCc4c(F)cncc4NC(=O)C[C@H](c4ccccc4)c4ccc(F)cc4)CN3)[nH]c2cc1C` [Example 69, (3R)—N-(4-{2-[(2R,5R)-5-(5,6-dimethyl-1H-benzimidazol-2-yl)morpholin-2-yl]ethyl}-5-fluoropyridin-3-yl)-3-(4-fluorophenyl)-3-phenylpropanamide] was tested, and the EC50 was 80 nM.
